# Data reported in US20230000924A1, “COMPOSITIONS AND METHODS FOR GENERATION OF SINOATRIAL NODE-LIKE CELLS AND THEIR USE IN DRUG DISCOVERY” (Cornell University, priority 2019, published 2023).
# Test system: GATA5-induced progenitors
# Experiment: qRT-PCR-based chemical screen in GATA5-induced murine ESC progenitors
# Format: cell-based
# Description: FIG. 5. Optimization of the protocol for the derivation of SAN-like cells from hPSCs a, Schematic representation of the murine differentiation protocol and qRT-PCR analysis for the expression levels of TBX3, TBX18 and SHOX2 following induction of GATA4, GATA5 or GATA6 at day 4. Fold change was normalized to level using the iGATA6 line; b, Heatmap illustration of the qPCR results of transcription-screen for TBX3, TBX18 and SHOX2; hit compounds (EGF inhibitors) from plates 1 and 3 are circled. c, The activity of tyrphostin AG490 and 2NP on the expression of TBX3, TBX18 and SHOX2; d, The activity of cucurbitacin (STAT3 inhibitor) on expression of MYH6; e, qRT-PCR analysis for TBX3, TBX18 and SHOX2 in S1+RA (left) and S1+cucurbitacin (right); f, The percentage of SHOX2:GFP^+ cells treated with different EGF inhibitors (left) and dose-response curve for effects of Tyrphostin AG490 on the percentage of SHOX2:GFP^+ cells. Fold changes were normalized to DMSO-treated group unless stated otherwise.
# We developed a protocol that maximizes the generation of pluripotent stem cell-derived SAN pacemaker lineages (PSC-SAN). […] We therefore applied GATA5-induced progenitors to an unbiased qRT-PCR-based chemical screen using annotated pathway modulating compounds to identify modulators that further enhance the expression of TTS and specification toward pacemaker lineage. […]
substance,measurement,value
cucurbitacin,expression levels of nodal and atrial structural marker MYH6,enhances the expression levels
